Test results taken from ChEMBL document CHEMBL4619764, “Synthesis of the Cyanobacterial Antibiotics Anaephenes A and B” (2020).
Converted amounts (≈) assume the structure as drawn.

Legend:
Type in all cases: functional
Staphylococcus aureus [1] = assay: Antibacterial activity against Staphylococcus aureus ATCC 25923 after 16 hrs by CLSI-based broth microdilution method; settings: ATCC 25923, 16 h
Staphylococcus aureus [2] = assay: Antibacterial activity against methicillin-resistant Staphylococcus aureus ATCC 33591 after 16 hrs by CLSI-based broth microdilution method; settings: ATCC 33591, 16 h
Bacillus cereus = assay: Antibacterial activity against Bacillus cereus ATCC 14579 after 16 hrs by CLSI-based broth microdilution method; settings: ATCC 14579, 16 h

CCC/C=C/CCCCc1cccc(O)c1
MIC (Staphylococcus aureus [1]): 16 µg/mL (≈ 73.3 µM)
MIC (Staphylococcus aureus [2]): 16 µg/mL (≈ 73.3 µM)
MIC (Bacillus cereus): 16 µg/mL (≈ 73.3 µM)

C#CCCC/C=C/CCCCc1cccc(O)c1
MIC (Staphylococcus aureus [1]): 8 µg/mL (≈ 33 µM)
MIC (Staphylococcus aureus [2]): 8 µg/mL (≈ 33 µM)
MIC (Bacillus cereus): 8 µg/mL (≈ 33 µM)

CC(=O)NC[C@H]1CN(c2ccc(N3CCOCC3)c(F)c2)C(=O)O1 [LINEZOLID]
MIC (Staphylococcus aureus [1]): 0.5 µg/mL (≈ 1.48 µM)
MIC (Staphylococcus aureus [2]): 1 µg/mL (≈ 2.96 µM)
MIC (Bacillus cereus): 1 µg/mL (≈ 2.96 µM)
